In US20090118274A1, “MONOCYCLIC AMINOPROPYL TETRAHYDRO-PYRAZOLO-PYRIDINE MODULATORS OF CATHEPSIN S” (priority 2007, published 2009):

target: T1, Recombinant human cathepsin S (CatS) (Homo sapiens, UniProt P25774); test: Recombinant human cathepsin S (CatS) fluorogenic substrate inhibition assay; assay type: biochemical; details: not given
T1 construct: made in house
Method: Recombinant human cathepsin S (CatS) was expressed in the baculovirus system and purified in one step with a thiopropyl-sepharose column. […] The assay is run in 150 mM sodium acetate pH 5.0 containing 1.5 mM DTT and 150 mM NaCl. […] Measurements are taken every min for 20 min. The rate is calculated from the slope of the increase in fluorescence and the percent inhibition is calculated from this.

T1 sequence (P25774 115-331): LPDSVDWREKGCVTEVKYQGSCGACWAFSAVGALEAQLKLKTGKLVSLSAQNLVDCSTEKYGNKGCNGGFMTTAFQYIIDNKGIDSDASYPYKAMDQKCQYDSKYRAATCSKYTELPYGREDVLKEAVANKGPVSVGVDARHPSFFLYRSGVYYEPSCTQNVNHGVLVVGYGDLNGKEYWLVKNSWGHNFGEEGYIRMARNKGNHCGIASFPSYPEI

| Structure (SMILES) | IC50 |
| --- | --- |
| CS(=O)(=O)N1CCc2c(c(-c3ccc(C(F)(F)F)c(CNC(=O)Oc4ccccc4)c3)nn2CC(O)CN2CCCC2)C1 (centres unmarked) [Example 116, {5-[1-(2-Hydroxy-3-pyrrolidin-1-yl-propyl)-5-methanesulfonyl-4,5,6,7-tetrahydro-1H-pyrazolo[4,3-c]pyridin-3-yl]-2-trifluoromethyl-benzyl}-carbamic acid phenyl ester] | 520 nM |
| CS(=O)(=O)N1CCc2c(c(-c3ccc(C(F)(F)F)c(CNC(=O)Oc4ccccc4)c3)nn2CCCN2CCC3(CCNC3=O)CC2)C1 [Example 148, (5-{5-Methanesulfonyl-1-[3-(1-oxo-2,8-diaza-spiro[4.5]dec-8-yl)-propyl]-4,5,6,7-tetrahydro-1H-pyrazolo[4,3-c]pyridin-3-yl}-2-trifluoromethyl-benzyl)-carbamic acid phenyl ester] | 200 nM |
| CS(=O)(=O)N1CCc2c(c(-c3ccc(C(F)(F)F)c(CNC(=O)Oc4ccccc4)c3)nn2CC(O)CN2CCC3(CCNC3=O)CC2)C1 (centres unmarked) [Example 149, (5-{1-[2-Hydroxy-3-(1-oxo-2,8-diaza-spiro[4.5]dec-8-yl)-propyl]-5-methanesulfonyl-4,5,6,7-tetrahydro-1H-pyrazolo[4,3-c]pyridin-3-yl}-2-trifluoromethyl-benzyl)-carbamic acid phenyl ester] | 220 nM |

same assay, conditions: average of results obtained; substrate Z-Valine-Valine-Arginine-AMC 10 μM, pH 5.0; read-out: CatS IC50

| Structure (SMILES) | IC50 |
| --- | --- |
| Cc1cc(C(=O)NCc2cc(-c3nn(CC(O)CN4CCCC4)c4c3CN(S(C)(=O)=O)CC4)ccc2C(F)(F)F)ccc1F (centres unmarked) [Example 96, 4-Fluoro-N-{5-[1-(2-hydroxy-3-pyrrolidin-1-yl-propyl)-5-methanesulfonyl-4,5,6,7-tetrahydro-1H-pyrazolo[4,3-c]pyridin-3-yl]-2-trifluoromethyl-benzyl}-3-methyl-benzamide] | 240 nM |
| CS(=O)(=O)N1CCc2c(c(-c3ccc(C(F)(F)F)c(CNC(=O)c4ccc(F)cc4)c3)nn2CC(O)CN2CCC[C@H]2C(N)=O)C1 (stereo partly drawn) [Example 97, (S)-1-[3-(3-{3-[(4-Fluoro-benzoylamino)-methyl]-4-trifluoromethyl-phenyl}-5-methanesulfonyl-4,5,6,7-tetrahydro-pyrazolo[4,3-c]pyridin-1-yl)-2-hydroxy-propyl]-pyrrolidine-2-carboxylic acid amide] | 240 nM |
| CS(=O)(=O)N1CCc2c(c(-c3ccc(C(F)(F)F)c(CNC(=O)c4ccc(F)cc4)c3)nn2CC(O)CN2CCN(CCO)CC2)C1 (centres unmarked) [Example 98, 4-Fluoro-N-[5-(1-{2-hydroxy-3-[4-(2-hydroxy-ethyl)-piperazin-1-yl]-propyl}-5-methanesulfonyl-4,5,6,7-tetrahydro-1H-pyrazolo[4,3-c]pyridin-3-yl)-2-trifluoromethyl-benzyl]-benzamide] | 280 nM |
| CC1CCCN1CC(O)Cn1nc(-c2ccc(C(F)(F)F)c(CNC(=O)c3ccc(F)cc3)c2)c2c1CCN(S(C)(=O)=O)C2 (centres unmarked) [Example 100, 4-Fluoro-N-(5-{1-[2-hydroxy-3-(2-methyl-pyrrolidin-1-yl)-propyl]-5-methanesulfonyl-4,5,6,7-tetrahydro-1H-pyrazolo[4,3-c]pyridin-3-yl}-2-trifluoromethyl-benzyl)-benzamide] | 330 nM |
| CS(=O)(=O)N1CCc2c(c(-c3ccc(C(F)(F)F)c(CNC(=O)c4ccc(F)cc4F)c3)nn2CC(O)CN2CCCC2)C1 (centres unmarked) [Example 101, 2,4-Difluoro-N-{5-[1-(2-hydroxy-3-pyrrolidin-1-yl-propyl)-5-methanesulfonyl-4,5,6,7-tetrahydro-1H-pyrazolo[4,3-c]pyridin-3-yl]-2-trifluoromethyl-benzyl}-benzamide] | 440 nM |
| CC(C)(C)OC(=O)NC1CCN(CC(O)Cn2nc(-c3ccc(C(F)(F)F)c(CNC(=O)c4ccc(F)cc4)c3)c3c2CCN(S(C)(=O)=O)C3)CC1 (centres unmarked) [Example 102] | 30 nM |
| CCOC(=O)C1CCN(CC(O)Cn2nc(-c3ccc(C(F)(F)F)c(CNC(=O)c4ccc(F)cc4)c3)c3c2CCN(S(C)(=O)=O)C3)CC1 (centres unmarked) [Example 103, 1-[3-(3-{3-[(4-Fluoro-benzoylamino)-methyl]-4-trifluoromethyl-phenyl}-5-methanesulfonyl-4,5,6,7-tetrahydro-pyrazolo[4,3-c]pyridin-1-yl)-2-hydroxy-propyl]-piperidine-4-carboxylic acid ethyl ester] | 30 nM |
| CC(=O)NC1CCN(CC(O)Cn2nc(-c3ccc(C(F)(F)F)c(CNC(=O)c4ccc(F)cc4)c3)c3c2CCN(S(C)(=O)=O)C3)CC1 (centres unmarked) [Example 140, N-(5-{1-[3-(4-Acetylamino-piperidin-1-yl)-2-hydroxy-propyl]-5-methanesulfonyl-4,5,6,7-tetrahydro-1H-pyrazolo[4,3-c]pyridin-3-yl}-2-trifluoromethyl-benzyl)-4-fluoro-benzamide] | 50 nM |
| CS(=O)(=O)N1CCc2c(c(-c3ccc(C(F)(F)F)c(CNC(=O)c4ccc(O)cc4)c3)nn2CC(O)CN2CCC3(CCNC3=O)CC2)C1 (centres unmarked) [Example 141, 4-Hydroxy-N-(5-{1-[2-hydroxy-3-(1-oxo-2,8-diaza-spiro[4.5]dec-8-yl)-propyl]-5-methanesulfonyl-4,5,6,7-tetrahydro-1H-pyrazolo[4,3-c]pyridin-3-yl}-2-trifluoromethyl-benzyl)-benzamide] | 50 nM |
| CS(=O)(=O)N1CCc2c(c(-c3ccc(C(F)(F)F)c(CNC(=O)c4ccc(O)cc4)c3)nn2CCCN2CCC3(CCNC3=O)CC2)C1 [Example 142, 4-Hydroxy-N-(5-{5-methanesulfonyl-1-[3-(1-oxo-2,8-diaza-spiro[4.5]dec-8-yl)-propyl]-4,5,6,7-tetrahydro-1H-pyrazolo[4,3-c]pyridin-3-yl}-2-trifluoromethyl-benzyl)-benzamide] | 90 nM |
| CS(=O)(=O)N1CCc2c(c(-c3ccc(C(F)(F)F)c(CNC(=O)c4ccccc4)c3)nn2CCCN2CCC3(CCNC3=O)CC2)C1 [Example 144, N-(5-{5-Methanesulfonyl-1-[3-(1-oxo-2,8-diaza-spiro[4.5]dec-8-yl)-propyl]-4,5,6,7-tetrahydro-1H-pyrazolo[4,3-c]pyridin-3-yl}-2-trifluoromethyl-benzyl)-benzamide] | 110 nM |
| CS(=O)(=O)N1CCc2c(c(-c3ccc(C(F)(F)F)c(CNC(=O)c4ccccc4)c3)nn2CC(O)CN2CCC3(CCNC3=O)CC2)C1 (centres unmarked) [Example 145, N-(5-{1-[2-Hydroxy-3-(1-oxo-2,8-diaza-spiro[4.5]dec-8-yl)-propyl]-5-methanesulfonyl-4,5,6,7-tetrahydro-1H-pyrazolo[4,3-c]pyridin-3-yl}-2-trifluoromethyl-benzyl)-benzamide] | 130 nM |
| CS(=O)(=O)N1CCc2c(c(-c3ccc(C(F)(F)F)c(CNC(=O)c4ccccc4O)c3)nn2CCCN2CCC3(CCNC3=O)CC2)C1 [Example 150, 2-Hydroxy-N-(5-{5-methanesulfonyl-1-[3-(1-oxo-2,8-diaza-spiro[4.5]dec-8-yl)-propyl]-4,5,6,7-tetrahydro-1H-pyrazolo[4,3-c]pyridin-3-yl}-2-trifluoromethyl-benzyl)-benzamide] | 240 nM |
| CC(C)=CC(=O)NCc1cc(-c2nn(CC(O)CN3CCOCC3)c3c2CN(S(C)(=O)=O)CC3)ccc1C(F)(F)F (centres unmarked) [Example 153, 3-Methyl-but-2-enoic acid 5-[1-(2-hydroxy-3-morpholin-4-yl-propyl)-5-methanesulfonyl-4,5,6,7-tetrahydro-1H-pyrazolo[4,3-c]pyridin-3-yl]-2-trifluoromethyl-benzylamide] | 140 nM |
| CC(C)=CC(=O)NCc1cc(-c2nn(CC(O)CN3CCC(O)CC3)c3c2CN(S(C)(=O)=O)CC3)ccc1C(F)(F)F (centres unmarked) [Example 154, 3-Methyl-but-2-enoic acid 5-{1-[2-hydroxy-3-(4-hydroxy-piperidin-1-yl)-propyl]-5-methanesulfonyl-4,5,6,7-tetrahydro-1H-pyrazolo[4,3-c]pyridin-3-yl}-2-trifluoromethyl-benzylamide] | 90 nM |
| CCOC(=O)NC1CCN(CC(O)Cn2nc(-c3ccc(C(F)(F)F)c(CNC(=O)CC(C)C)c3)c3c2CCN(S(C)(=O)=O)C3)CC1 (centres unmarked) [Example 155, {1-[2-Hydroxy-3-(5-methanesulfonyl-3-{3-[(3-methyl-butyrylamino)-methyl]-4-trifluoromethyl-phenyl}-4,5,6,7-tetrahydro-pyrazolo[4,3-c]pyridin-1-yl)-propyl]-piperidin-4-yl}-carbamic acid ethyl ester] | 50 nM |
| CS(=O)(=O)N1CCc2c(c(-c3ccc(C(F)(F)F)c(CNC(=O)c4ccc(O)cc4)c3)nn2CC(O)CN2CCCC2)C1 (centres unmarked) [Example 156, 4-Hydroxy-N-{5-[1-(2-hydroxy-3-pyrrolidin-1-yl-propyl)-5-methanesulfonyl-4,5,6,7-tetrahydro-1H-pyrazolo[4,3-c]pyridin-3-yl]-2-trifluoromethyl-benzyl}-benzamide] | 260 nM |
| CS(=O)(=O)N1CCc2c(c(-c3ccc(C(F)(F)F)c(CNC(=O)c4cc5ccccc5s4)c3)nn2CC(O)CN2CCC3(CCNC3=O)CC2)C1 (centres unmarked) [Example 157, Benzo[b]thiophene-2-carboxylic acid 5-{1-[2-hydroxy-3-(1-oxo-2,8-diaza-spiro[4.5]dec-8-yl)-propyl]-5-methanesulfonyl-4,5,6,7-tetrahydro-1H-pyrazolo[4,3-c]pyridin-3-yl}-2-trifluoromethyl-benzylamide] | 270 nM |
| CS(=O)(=O)N1CCc2c(c(-c3ccc(C(F)(F)F)c(CNC(=O)C4CCCCCC4)c3)nn2CCCN2CCC3(CCNC3=O)CC2)C1 [Example 158, Cycloheptanecarboxylic acid 5-{5-methanesulfonyl-1-[3-(1-oxo-2,8-diaza-spiro[4.5]dec-8-yl)-propyl]-4,5,6,7-tetrahydro-1H-pyrazolo[4,3-c]pyridin-3-yl}-2-trifluoromethyl-benzylamide] | 280 nM |
| CS(=O)(=O)N1CCc2c(c(-c3ccc(C(F)(F)F)c(CNC(=O)c4cccc(C#N)c4)c3)nn2CC(O)CN2CCCC2)C1 (centres unmarked) [Example 159, 3-Cyano-N-{5-[1-(2-hydroxy-3-pyrrolidin-1-yl-propyl)-5-methanesulfonyl-4,5,6,7-tetrahydro-1H-pyrazolo[4,3-c]pyridin-3-yl]-2-trifluoromethyl-benzyl}-benzamide] | 290 nM |
